{"source": "patent US20090170759A1", "about": "“NEUROPROTECTIVE PEPTIDES” (priority 2007, published 2009)", "key": {"[1]": {"tested_on": "spontaneous hypertensive rats", "test": "Experimental model of cerebral ischemia (tandem CCA/MCA occlusion), infarct volume", "assay_type": "in vivo, rat", "settings": "listed as EPO", "experimental": "Male spontaneous hypertensive rats (Charles River) weighing between 250-300 g were weighed and then anesthetized with ketamine (100 mg/ml)/xylazine (20 mg/ml) cocktail (1.2 ml/kg; i.p.). The level of anesthetic was assessed by corneal reflex (air puff to eye) and leg jerk in response to tail or foot pinch. Once the rat was anesthetized, it was placed on a small animal surgical board and restrained during the surgical procedure. The rat's body temperature was monitored continuously with a rectal probe and maintained at 37° C. with a homeostatic heating pad.\nRats were rendered ischemic by tandem occlusion of the left common carotid artery and the left middle cerebral artery for 2 h followed by 22 h of reperfusion using a modification of the technique described by Brint and co-workers (J. Cereb Blood Flow Metab 8:474-485, 1988). Specifically, the left CCA was isolated through an incision in the ventral surface of the neck. […]\nStudy I: EPO and Vehicle Delivered Via Osmotic Mini-Pump • […] prior to the onset of ischemia, an osmotic mini-pump (Model 1003D; Alza) filled with vehicle or EPO was placed between the scapula of the rat. […] Twenty-two hours later, the rats were evaluated for behavioral performance, a blood sample was collected for terminal plasma levels of EPO and then the rat was euthanized, brain removed, sectioned and stained for histological analysis.\nStudy II: EPO and Vehicle Delivered as a Single Intravenous Bolus Injection • On Day One, the rats were rendered ischemic as described above. […] Twenty-two hours later, the rats were evaluated for behavioral performance, a blood sample was collected for terminal plasma levels of EPO and then the rat was euthanized, brain removed, sectioned and stained for histological analysis. […]"}, "[2]": {"tested_on": "rat cerebral cortical neurons", "test": "Glutamate toxicity assay in primary cortical cultures", "assay_type": "cell-based", "settings": "pretreatment 24 h prior to 100 μM glutamate", "from_the_text": "Dissociated hippocampal and cortical cell cultures were established from embryonic day 18 rat fetuses as previously described (Mattson et al., 1994). Briefly, fetuses were removed via cesarean section from pregnant moms (Sprague-Dawley) anesthetized with halothane according to the AVMA Panel on Euthanasia. Pups were decapitated and the brains were removed and placed in HEPES-buffered Hank's Balanced Salt solution (HBSS; Gibco). The hippocampi and cortices were dissected out and pooled according to tissue-type. Tissue was trypsinized for 15 min (1 mg/ml trypsin-HBSS; Worthington), rinsed with fresh HBSS, incubated in trypsin inhibitor (1 mg/ml; Sigma) for 5 min, rinsed again with fresh HBSS and then triturated in 1 ml fresh HBSS with a fire-polished glass pipette. Dissociated cells were seeded at 30,000 cells/well onto poly-D-lysine coated 96-well plates (Collaborative BioScience). […]\nCortical cells were seeded at 200,000 cells/dish onto polyethylenimine-coated 35 mm culture dishes. […] Cell survival was measured by counting viable cells in each field pre- and post-experimental treatment. […] Data were expressed as percent of control (vehicle; mean±SD)."}}, "note": "“Also recorded” adds a separate entry of the source."}
{"substance": "rhEPO: purified, recombinant human EPO (rhEPO), currently formulated and distributed under the trademarks of EPREX, ERYPO, or PROCRIT", "values": [{"measurement": "infarct volume, Study I", "setting": "[1]; 132 or 1321 U/day continuous iv infusion via osmotic mini-pump, started before ischemia", "value": "significantly reduced infarct volume; also recorded: protects against ischemic injury"}, {"measurement": "infarct volume, Study III", "setting": "[1]; repeat iv bolus of 2500 U/kg at 15 min, 2 h, 4 h and 6 h post-occlusion", "value": "significant decrease in infarct volume; also recorded: protects against ischemic injury"}, {"measurement": "ischemic damage, Study II", "setting": "[1]; single iv bolus 15 min post-occlusion at 1000, 2500 or 5000 U/kg", "value": "did not protect against ischemic damage; also recorded: does not protect against ischemic injury"}, {"measurement": "maximal increase of cell survival over parallel cultures treated with glutamate alone", "setting": "[2]", "value": "approximately 200%"}, {"measurement": "neuronal survival after glutamate (in words)", "setting": "[2]", "value": "significant increase in neuronal survival; also recorded: protects rat cerebral cortical neurons against glutamate toxicity"}]}
